These results are taken from US20080275073A1, “CRYSTALLINE FORMS AND POLYMORPHS OF N-(3-(DIMETHYLAMINO)PROPYL)-4-(4-(3-FLUORO-4-METHOXYPHENYL) PYRIMIDIN-2-YLAMINO) BENZENESULFONAMIDE AS PHARMACEUTICALLY ACCEPTABLE SALTS” (Wyeth, priority 2007, published 2008).

Data set [1] can be described thus: solubility of free base in organic solvents / group 3 solvents. The settings on record: free base form. The format is physicochemical. On the procedure: (§1) In an exemplary embodiment, the solubility of the free base form of compound 3 in THF, DMSO and DMF was high but the solubility in group 3 solvents, including water for example, was low. For example, acetone is needed to dissolve the free base at 50° C. […] HCl, phosphoric acid, tartaric acid, acetic acid, D-, L-glucoronic acid and succinic acid were used to prepare pharmaceutically acceptable salts of compound 3. One crystalline form of compound 3 as a mono-succinate salt and five crystalline polymorphs of compound 3 as a hemi-succinate salt are provided in the Examples.

A short description of data set [2]: water solubility of free base and salts of compound 3. It counts as physicochemical. Here is the method:
as §1

Turning to `COc1ccc(-c2ccnc(Nc3ccc(S(=O)(=O)NCCCN(C)C)cc3)n2)cc1F` [compound 3], the “solubility in DMF” value in data set [1] (DMF) was “high”. Also, the “solubility in DMSO” value in data set [1] (DMSO) is “high”. Further, the “solubility in THF” value in data set [1] (THF) is reported as “high”. The “solubility in group 3 solvents, including water” value in data set [1] (group 3 solvents, including water) is listed as “low”. Also, the Solubility in water result in data set [2] (free base, thermogravimeteric method) is listed as “not detectable”.
In general, solubility refers to the dissolved amount per volume that the medium holds. As for `COc1ccc(-c2ccnc(Nc3ccc(S(=O)(=O)NCCCN(C)C)cc3)n2)cc1F.O=C(O)CCC(=O)O` [mono-succinate, N-(3-(dimethylamino)propyl)-4-(4-(3-fluoro-4-methoxyphenyl)pyrimidin-2-ylamino)benzenesulfonamide], in data set [2] (thermodynamic from solid, in water), the solubility amounted to 1100 µg/mL.
